In one experiment the test system is canola. Nature of the experiment: Canola seed treatment, yield at end of growing season. Conditions: canola seed treated with acetamiprid; end of the growing season. Type of experiment: in vivo.
In experiment [1] the test system is Phyllotreta spp. (flea beetles). In words: Canola seed treatment, shot-hole damage assessment post-emergence. Format: in vivo. Particulars: 4, 7, 10 and 14 days post-emergence. As for the experimental part:
Acetamiprid is applied to canola seed at rates of 7.5, 10, and 12.5 grams of active ingredient per kg of seed. Imidacloprid is applied to canola seed at rate of 15 g/kg of seed. The seed is planted and allowed to grow. At 4, 7, 10 and 14 days post-emergence of the plant, damage is assessed for the plants by looking for shot-hole damage.

In the case of `C/C(=N\C#N)N(C)Cc1ccc(Cl)nc1` [acetamiprid, (E)-N^1-[(6-chloro-3-pyridyl)methyl]-N^2-cyano-N^1-methylacetamidine], in the experiment on canola, the “yield of plants grown from treated seed” value is given as “general yield increase”. For the same compound, the “control of shot-hole damage relative to imidacloprid” value in experiment [1] (acetamiprid 7.5, 10 and 12.5 g a.i./kg canola seed vs imidacloprid 15 g/kg seed) is “substantially more control than imidacloprid”. The “control of shot-hole damage relative to two stage lindane+terbufos treatment” value in experiment [1] (acetamiprid 7.5, 10 and 12.5 g a.i./kg canola seed) was “generally equivalent to the two stage lindane+terbufos treatment”.
